# Reference: US20250320496A1, “MODULATION OF ABCB11 GENE TRANSCRIPTION USING ANTISENSE OLIGONUCLEOTIDES TARGETING REGULATORY RNAS” (CAMP4 Therapeutics Corporation, priority 2022, published 2025)
# Strand notation (5' to 3'): a small letter for the sugar, then the base; units joined by * are phosphorothioate-linked, units joined directly phosphodiester-linked; [ ] holds rarer units or linkages, { } end groups; capitals alone tell only the bases. e = 2'-O-(2-methoxyethyl) (MOE); l = locked nucleic acid (LNA); [5mC] = 5-methylcytosine; d = 2'-deoxy (DNA)
# Test system: human ABCB11 mRNA
# Experiment: ASO treatment of primary human hepatocytes (PHH), ABCB11 mRNA by RT-qPCR normalized to B2M
# Assay type: cell-based
# Settings: for ABCB11 mRNA FC (5 μM ASO vs. UNT) / ABCB11 FC mRNA (5 μM ASO vs. untreated): primary human hepatocytes; for ABCB11 mRNA FC (5 μM ASO vs. UNT): normalized to untreated PHHs (UNT); for ABCB11 FC mRNA (5 μM ASO vs. untreated): 5 μM ASO with PO-modifications, normalized to untreated hepatocytes
# How it was run: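 ABCB11 mRNA was quantified by Taqman RT-qPCR relative to B2M and expressed as fold over untreated cells. Cells were cryopreserved primary human hepatocytes given ASO in Matrigel-supplemented medium 4 h after plating, at 1.25, 2.5, 5 or 10 μM (5 μM for screening), and harvested after 72 hrs.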
Substance,ABCB11 mRNA FC (5 μM ASO vs. UNT) [fold change],other results
CO-7200 (eA*eG*eG*eT*eG*eG*eA*eG*e[5mC]*eA*eA*eA*e[5mC]*eT*eA*eG*eG*e[5mC]*eA*e[5mC]*eT*eG*eA*eG; antisense),1.277,–
CO-4481 (antisense e[5mC]*eA*eT*e[5mC]*eT*e[5mC]*eT*eG*eT*eG*eA*eA*eT*e[5mC]*eG*e[5mC]*eT*eA*eG*eT),1.18,–
CO-6971 (antisense eA*eT*eG*eG*eG*eT*eG*eT*eG*eG*eA*eT*eG*eT*eA*eG*eA*eT*eG*eA),1.091,–
CO-11234 (antisense eG*eT*eG*eG*lAeGe[5mC]*eA*eA*lA*e[5mC]*eT*eA*eGlGe[5mC]*eA*e[5mC]*eT*eG),–,ABCB11 FC mRNA (5 μM ASO vs. untreated): 1.55 fold change
CO-7206 (eT*eT*eG*eG*e[5mC]*lG*dT*dT*lA*dT*dT*dA*dA*lT*dT*d[5mC]*lT*eA*e[5mC]*eA*eG*eA; antisense),1.164,–
CO-6973 (antisense eA*eA*eA*eA*eA*eT*eG*eGeGeT*eGeT*eG*eG*eA*eT*eG*eT*eA*eG),1.325,–
"CO-7111 (TACATTTAGAGACAAAGAATCGCT; fully MOE, PS/PO backbone, 5-methylcytosine; listed as RNA; modified_base 1..24: mod_base = OTHER; note = Phosphorothioate linkage; note = 2'-O-(2-methoxyethyl) ribonucleotide; modified_base 3: mod_base = OTHER; note = 5-methyl cytidine; modified_base 13: mod_base)",1.027,–
CO-4017 (antisense e[5mC]*eT*eG*e[5mC]*eT*e[5mC]*eA*eA*eA*eG*eT*eA*eA*eA*eA*eA*eT*eA*e[5mC]*e[5mC]),1.228,–
CO-6967 (antisense eG*eA*eT*eG*eT*eA*eG*eA*eT*eG*eA*eA*eT*eG*eG*e[5mC]*eA*eA*eG*eG),1.405,–
CO-11244 (antisense eG*eT*eGeG*lAeG*e[5mC]eA*eAlA*e[5mC]eT*eAeG*lGe[5mC]*eAe[5mC]*eT*eG),–,ABCB11 FC mRNA (5 μM ASO vs. untreated): 1.29 fold change
CO-4034 (antisense e[5mC]*eG*eA*eG*eG*eT*eT*eG*eG*eA*eA*eA*eA*eG*eG*eT*eT*eG*eT*eG),0.792,–
CO-7190: derivative ASO with additional chemical modifications based on parent ASO CO-4535 (antisense eT*eG*lG*e[5mC]*eG*lT*eT*eA*lT*eT*eA*lA*eT*eT*l[5mC]*eT*eA*l[5mC]*eA*eG),1.641,–
CO-7163 (antisense e[5mC]*eA*eG*eA*e[5mC]*eA*eT*eG*eA*eT*eG*eT*eG*eG*eA*eG*eG*eT*eG*eG),1.308,–
CO-11207 (antisense eT*eG*eTeT*eT*eTeG*e[5mC]*eTeT*eG*eGeT*e[5mC]*eAeA*eG*eAeG*eG),–,ABCB11 FC mRNA (5 μM ASO vs. untreated): 0.91 fold change
CO-3984: ASO targeting the paRNA regRNA RR63 (antisense e[5mC]*eA*eT*eT*eT*eA*eG*eA*eG*eA*e[5mC]*eA*eA*eA*eG*eA*eA*eT*e[5mC]*eG),1.111,"upregulation of ABCB11 mRNA (PHHs, Day 3, normalized to untreated PHHs): approximately 1.5 fold"
CO-11225 (antisense eG*eTlGeGeAlGe[5mC]*eA*lA*eA*e[5mC]*lT*eA*eGlGe[5mC]eAl[5mC]eT*eG),–,ABCB11 FC mRNA (5 μM ASO vs. untreated): 1.66 fold change
CO-4523 (antisense eT*e[5mC]*eT*eG*e[5mC]*eA*eA*eA*eT*eT*eA*eA*eG*eA*eA*eG*e[5mC]*eA*e[5mC]eT),1.037,–
CO-11213 (antisense eG*eTlGeGlAeGl[5mC]*eA*lA*eA*l[5mC]*eT*lA*eGlGe[5mC]lAe[5mC]eT*eG),–,ABCB11 FC mRNA (5 μM ASO vs. untreated): 1.95 fold change
CO-4508 (antisense eG*eT*eA*eG*eG*eA*eA*eG*eT*eT*eG*eA*eA*eT*eG*eA*eG*eT*eT*eG),1.185,–
CO-7110 (eT*eA*e[5mC]*eA*eT*eT*eT*dA*dG*dA*dG*dA*d[5mC]*dA*dA*dA*dG*eA*eA*eT*e[5mC]*eG*e[5mC]*eT; antisense),1.035,–
CO-11237 (antisense eG*eTeGeGlAeGe[5mC]*eA*eA*lA*e[5mC]*eT*eA*eGlGe[5mC]eAe[5mC]eT*eG),–,ABCB11 FC mRNA (5 μM ASO vs. untreated): 1.56 fold change
CO-6672 (antisense eA*eG*eG*eA*e[5mC]*eA*e[5mC]*eA*eA*eT*eT*eT*e[5mC]*eT*eG*eT*eA*eG*eT*eT),1.391,–
CO-7179: derivative ASO with additional chemical modifications based on parent ASO CO-4529 (antisense eG*eT*lG*eG*lA*eG*l[5mC]*eA*lA*eA*l[5mC]*eT*lA*eG*lG*e[5mC]*lA*e[5mC]*eT*eG),2.344,–

Substance,ABCB11 mRNA FC (5 μM ASO vs. UNT) [fold change],other results
CO-7053 (antisense e[5mC]*e[5mC]*eT*e[5mC]*eA*e[5mC]*e[5mC]*eT*eT*eG*eG*eT*eT*e[5mC]*e[5mC]*e[5mC]*e[5mC]*e[5mC]*eT*eG),1.145,–
CO-4041 (antisense eT*e[5mC]*e[5mC]*eA*eA*eG*eG*e[5mC]*e[5mC]*eT*eG*eT*eT*eG*eA*e[5mC]*eA*e[5mC]*e[5mC]*e[5mC]),0.963,–
CO-4018 (antisense eA*eT*eG*eG*e[5mC]*e[5mC]*eG*eA*eA*eT*eA*eG*eA*eT*eT*eG*eA*eA*eT*eA),1.124,–
CO-4040 (antisense eG*eT*eT*eT*e[5mC]*e[5mC]*e[5mC]*eA*eA*eG*e[5mC]*eA*e[5mC]*eA*e[5mC]*eT*e[5mC]*eT*eG*eT),0.921,–
CO-11219 (antisense eG*eT*lGeG*lA*eGl[5mC]*eA*lAeA*l[5mC]*eTlA*eG*lGe[5mC]*lA*e[5mC]eT*eG),–,ABCB11 FC mRNA (5 μM ASO vs. untreated): 2.45 fold change
CO-4524 (antisense e[5mC]*eA*eG*eA*eG*eA*eA*eA*e[5mC]*e[5mC]*eT*eA*eA*eA*eA*eT*eT*eG*eA*eG),1.243,–
CO-3991 (antisense eG*eG*eG*eA*eT*eG*eA*e[5mC]eT*e[5mC]*e[5mC]eT*eA*eA*eA*eA*eA*eT*eG*eG),1.614,–
CO-3995 (antisense eG*eT*e[5mC]*eT*eA*eG*eG*eA*eG*e[5mC]*eT*eT*e[5mC]*eT*eG*eT*eT*eT*eA*e[5mC]),1.683,–
CO-4026 (antisense e[5mC]*eT*eT*eG*eT*e[5mC]*e[5mC]*eA*eG*eT*eG*eT*eA*eA*eA*e[5mC]*eA*eA*e[5mC]*eG),1.234,–
CO-4510 (antisense eG*e[5mC]*e[5mC]*eA*e[5mC]*eA*e[5mC]*eG*eT*eT*eT*e[5mC]*eT*eT*eA*eT*eT*eG*e[5mC]*eG),1.084,–
CO-7070 (e[5mC]*eA*eT*eT*lT*dA*dG*dA*lG*dA*d[5mC]*dA*lA*dA*dG*eA*lA*eT*e[5mC]*eG; antisense),1.044,–
CO-4509 (antisense eT*eG*eG*eA*eT*eG*eT*eA*eG*eA*eT*eG*eA*eA*eT*eG*eG*e[5mC]*eA*eA),1.233,–
CO-11230 (antisense eG*eTlG*eG*eAlG*e[5mC]*eAlA*eA*e[5mC]lT*eA*eGlG*e[5mC]*eAl[5mC]*eT*eG),–,ABCB11 FC mRNA (5 μM ASO vs. untreated): 1.63 fold change
CO-7109 (eA*e[5mC]*eA*eT*eT*lT*dA*dG*lA*dG*dA*d[5mC]*dA*lA*dA*dG*lA*eA*eT*e[5mC]*eG*e[5mC]; antisense),1.043,–
CO-7015 (antisense eA*eG*eT*eG*eA*dG*dG*d[5mC]*eA*dT*d[5mC]*dA*dG*eG*dT*dA*dA*eG*eT*eT*e[5mC]*e[5mC]),1.257,–
CO-7149: derivative ASO with additional chemical modifications based on parent ASO CO-4517 (antisense e[5mC]*e[5mC]*eT*eT*eA*eG*eG*eA*eG*eG*eA*eT*eT*eA*eT*eT*eT*eA*eA*e[5mC]*e[5mC]*eT),1.719,–
CO-4484 (antisense eG*e[5mC]*eT*eA*eA*eT*e[5mC]*e[5mC]*eA*eA*e[5mC]*e[5mC]*eA*e[5mC]*eT*eT*e[5mC]*eA*eA*e[5mC]),1.113,–
"CO-7113 (TACATTTAGAGACAAAGAATCGCT; MOE/LNA gapmer, PS/PO backbone, 5-methylcytosine; listed as DNA; modified_base 1..24: mod_base = OTHER; note = Phosphorothioate linkage; modified_base 1..5: mod_base = OTHER; note = 2'-O-(2-methoxyethyl) ribonucleotide; misc_feature 1..5: note = RNA; misc_feature 6..7: note = DNA; misc_feature 8: note = RNA)",1.179,–
CO-7064 (eT*e[5mC]*eT*eG*lG*eA*eA*eA*lA*eT*eA*eA*lT*eG*e[5mC]*e[5mC]*lT*eT*eT*e[5mC]; antisense),1.017,–
CO-7018 (antisense eA*eA*eG*eT*eG*eA*eG*eG*e[5mC]*eA*eT*e[5mC]*eA*eG*eG*eT*eA*eA*eG*eT*eT*e[5mC]*e[5mC]*eT),1.249,–
CO-7091 (eA*e[5mC]*e[5mC]*l[5mC]*e[5mC]*l[5mC]*e[5mC]*lT*e[5mC]*lA*e[5mC]*l[5mC]*eT*lT*eG*lG*eT*lT*e[5mC]*e[5mC]; antisense),1.164,–
CO-4030 (antisense eT*e[5mC]*eA*e[5mC]*eA*eG*eGeT*eA*eA*eG*eT*eA*eA*e[5mC]*eT*eT*eA*eT*eA),1.106,–
